# Assay results: article PMC7156724, “Potent BRD4 inhibitor suppresses cancer cell-macrophage interaction” (Nature Communications, 2020)
# “And” between values parts separate entries of the source, which are not always exact repeats. Equal values may be shown once.
# Experiments:
# [1] = system: H526 cells; assay: Clonogenic (colony formation) assay, H526; assay type: cell-based, human; conditions: H526, 250 nM, 5 days
# Protocol: Fig. 2 NHWD-870 inhibited BRD4 phosphorylation and c-MYC expression, and suppressed cell growth. a Representative western blot analysis of p-BRD4 (s484/488), BRD4, c-MYC, and GAPDH after treatment of MDA-MB231, SUM159, A2780 ES-2, and H526 cells with JQ-1 or NHWD-870 at the indicated concentrations for 24 h. GAPDH served as the loading control. Selected from three independent experiments. b MTT assays of H526, A2780, ES-2, and MDA-MB231 cells treated with JQ-1 or NHWD-870 at the indicated concentrations for 5 days. Data are presented as mean ± SEM from three independent experiments. c, d Clonogenic assays of H526, A2780, ES-2 and MDA-MB231 cells treated with 250 nM JQ-1 or NHWD-870 for 5 days. Shown are representative images (c) and quantification of colonies (d). […] Shown are representative images (e) and quantification of relative colony sizes (f). Scale bar, 50 μm. Data are presented as mean ± SEM from five independent experiments. p values were calculated using two-tailed, unpaired t tests in this figure. **p < 0.01; ***p < 0.001. Source data are provided as a Source Data file. […]
# 5. Colony formation assay. Cells were seeded in 6-well plates at 3,000 cells/well […]
# every week. […] Colony numbers were calculated with imageJ version
# [2] = system: TAMs (CD68+ cells) in H526 tumors; assay: Immunofluorescent staining of CD68 (TAMs) in subcutaneous H526 tumors; assay type: in vivo, mouse; conditions: subcutaneous H526 tumors from Fig. 3a, individual tumors
# Description: Shown are immunofluorescent staining of CD68 (macrophage marker, red) and E-Cadherin (cancer cells, green) (a) and quantification of CD68 positive cells (b) in vehicle, NHWD-870 treated H526 (n = 6) and A2780 (n = 5) tumors from Fig. 3a, b, respectively. Scale bar is 100 μm. […] Shown are representative immunofluorescent staining of Ki67 and CD68 (c) and quantification of percentage of Ki67+ cells in CD68+ cells (d). Scale bar is 30 μm. Data are presented as mean ± SEM of five different tumors. e Schematics of the animal experiments using an orthotopic mouse OC model, established by intraperitoneally injecting human A2780 cells into female recipient nude mice. […] Shown are representative immunofluorescent staining of Ki67 and CD68 (h) and quantification of Ki67^+CD68^− (i) or Ki67^+CD68^+ (j), or CD68^+ cells (k). […] Data are presented as mean ± SEM from five different mice. p values were calculated using two-tailed, unpaired t tests in this figure. *p < 0.05; **p < 0.01; ***p < 0.001. […]
# Immunofluorescence staining of tumor sections was performed according to the manufacturer’s instructions. Slides were imaged using a Zeiss Axiovert 200 fluorescence microscope (Carl Zeiss MicroImaging; Thornwood, NY), and images were captured using Openlab3 software (Imprecision, Lexington, MA). Cleaved caspase 3, Ki67, CSF1, and CD68 positive cells were counted with ImageJ version 1.52s[58].
# [3] = Metabolic stability assay, monkey liver microsomes; conditions: for Remaining in Monkey liver microsomes (Sup Fig.6d): in % (unit assumed)
# Protocol: 7. Metabolic stability assay. The metabolic profile of NHWD-870 was determined using mouse, rat, dog, monkey, and human liver microsomes using the protocols […]
# No. Compound ID Exat Mass Stock Conc.
# 1) 100 mM potassium phosphate buffer, PH7.4; 2) 10mM MgCI2
# 1) Intermediate solution: Dilute 5 μL of compound or control from stock solution (10 mM) with 45 uL DMSO,then mixed with 450 μL 1:1 Methanol/Water (Conc.: 10 0 […]
# 2) Working solution: Dilute 50 μL from intermediate solution with 450 μL 100 mM potassium phosphate buffer (Conc.: 10 μM, 4.5%MeOH)
# (3) NADPH regenerating system (final Isocitric dehydrogenase conc.= 1 unit/mL at […]
# 1) β-Nicotinamide adenine dinucleotide phosphate, Vendor: sigma Cat. No. N0505
# 2) Isocitric acid, Vendor: Sigma Cat. No. I1252
# 3) Isocitric dehydrogenase, Vendor: sigma Cat. No. I2002
# (4) Liver microsome solution preparation (final concentration o f 0.5 mg protein/mL) […]
# Cold ACN including 100 ng/mL Tolbutamide and 100 ng/mL Labetalol as internal […]
# 1) Add 10 μL compound or control working solution/well to all plates (T0, T5, T10, T20, T30, T60, NCF60) except matrix blank.
# 2) Dispense 680 μL/well microsome solution to 96-well plate as reserv oir according to […]
# plate map. Then add 80 μL/well to every plate by Apricot, incubate the mixture of microsome solution and compound at 37℃ for about 10 min.
# 3) Add 10 μL 100 mM potassium phosphate buffer/well to NCF60, incubate at 37℃, […]
# 4) After pre-warming, dispense 90 μL/well NADPH regenerating system to 96-well plate as reservoir according to the plate map. Then add 10 μL/well to every plate by Apricot to start reaction.
# 5) Incubate at 37℃, start timer 2.
# 6) Add 300 (μL/well) stop solution (cold in 4℃, including 100 ng/mL Tolbutamide and 100 ng/mL Labetalol) to terminate the reaction.
# 7) The sampling plates are shaked for approx 10 min.
# 8) Samples are centrifuged at 4000 rpm for 20 min under 4℃.
# 9) While centrifuging, load 8×new 96-well plate with 300 μL HPLC water, then transfer 100 μL supernatant, mixed for LC/MS/MS.
# Use equation of first order kinetics to calculate t1/2 and Clin t(mic): […]
# Equation of first order kinetics: […]
# [4] = monkey, liver microsomes, pH 7.4
smiles,measurement,setting,value
Cc1nnn(C)c1-c1cnc2c3c4cnn(C)c4ccc3n([C@H](c3ccccc3)C3CCOCC3)c2c1 [NHWD-870],Clone Number (clonogenic assay),[1],75 and 84 and 92 and 65 and 76
same,quantification of CD68 positive cells,[2],0.3 and 1.5 and 0.1 and 0.7 and 0.5 and 1.1
same,Remaining (T=60min),[3]; monkey liver microsomes,25.7%
same,Remaining (*NCF=60min),"[3]; monkey liver microsomes, no cofactor",112.0%
same,CLint scaled at 1 µM,[3]; [4],62.4 mL/min/kg
same,half-life at 1 µM,[3]; [4],30 min
same,microsomal CLint at 1 µM,"[3]; monkey, microsomes, pH 7.4",46.2 µL/min/mg
same,Remaining in Monkey liver microsomes (Sup Fig.6d),[3]; time 0,100
same,Remaining in Monkey liver microsomes (Sup Fig.6d),[3]; time 5,73.787
same,Remaining in Monkey liver microsomes (Sup Fig.6d),[3]; time 10,48.901
same,Remaining in Monkey liver microsomes (Sup Fig.6d),[3]; time 20,36.72
same,Remaining in Monkey liver microsomes (Sup Fig.6d),[3]; time 30,26.708
same,Remaining in Monkey liver microsomes (Sup Fig.6d),[3]; time 60,12.364
